We go through 9 molecules from patent US9328093B2, “Selective inhibitors of ubiquitin specific protease 7, the pharmaceutical compositions thereof and their therapeutic applications” (HYBRIGENICS SA, priority 2010, dated 2016).

The target in this experiment is T1, USP8 (Homo sapiens, UniProt P40818).
T1 construct: His (from pFastBac-HT vector) (N); made in house; host or cells: Sf9 or High Five insect cells, baculovirus
T1 sequence (P40818 1-1118): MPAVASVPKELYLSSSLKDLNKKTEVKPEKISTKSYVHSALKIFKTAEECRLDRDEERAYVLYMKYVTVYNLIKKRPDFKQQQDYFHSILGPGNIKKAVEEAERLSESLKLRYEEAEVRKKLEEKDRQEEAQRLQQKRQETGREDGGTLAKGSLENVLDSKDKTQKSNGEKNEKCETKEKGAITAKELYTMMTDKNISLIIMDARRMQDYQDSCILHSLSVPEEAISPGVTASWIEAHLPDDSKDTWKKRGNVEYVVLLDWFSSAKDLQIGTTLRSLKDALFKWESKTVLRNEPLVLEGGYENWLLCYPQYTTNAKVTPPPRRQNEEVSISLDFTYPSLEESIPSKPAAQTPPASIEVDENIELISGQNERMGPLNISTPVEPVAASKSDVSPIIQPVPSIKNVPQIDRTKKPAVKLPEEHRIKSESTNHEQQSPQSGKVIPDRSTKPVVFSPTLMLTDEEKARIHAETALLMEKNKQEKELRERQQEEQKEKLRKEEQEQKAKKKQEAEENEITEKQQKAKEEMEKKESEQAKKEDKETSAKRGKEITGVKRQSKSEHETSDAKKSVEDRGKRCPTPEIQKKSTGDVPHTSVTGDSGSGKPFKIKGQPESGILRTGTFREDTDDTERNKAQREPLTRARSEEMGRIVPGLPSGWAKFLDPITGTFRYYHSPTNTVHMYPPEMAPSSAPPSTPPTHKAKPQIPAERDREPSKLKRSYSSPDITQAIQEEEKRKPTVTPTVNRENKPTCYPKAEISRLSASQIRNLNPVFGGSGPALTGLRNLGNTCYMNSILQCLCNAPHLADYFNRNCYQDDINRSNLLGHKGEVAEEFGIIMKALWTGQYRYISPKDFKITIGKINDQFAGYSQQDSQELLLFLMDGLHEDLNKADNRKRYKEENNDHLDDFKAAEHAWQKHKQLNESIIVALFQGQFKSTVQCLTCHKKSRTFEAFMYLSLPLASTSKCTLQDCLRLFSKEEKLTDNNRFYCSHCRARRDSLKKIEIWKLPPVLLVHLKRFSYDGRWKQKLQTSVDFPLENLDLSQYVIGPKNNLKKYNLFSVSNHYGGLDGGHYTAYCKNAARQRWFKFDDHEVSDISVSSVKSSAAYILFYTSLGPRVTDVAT
The experiment is described as follows: USP8 activity assay (Ub-AMC substrate). The class given is biochemical. Particulars: Ub-AMC 300 nM, USP8 1.36 nM. The source says: The cDNA encoding USP8 was obtained by PCR amplification from placenta mRNA. USP8 cDNA was subcloned by PCR into a baculovirus expression vector (pFastBac-HT; Invitrogen). A cDNA encoding a mutated USP8 was generated by mutagenic PCR. The corresponding protein encodes a cysteine to alanine substitution at residue 786. The sequences were ascertained by sequencing of the entire open reading frame. Bacmids encoding USP8 were generated following DH10bac transposition. The corresponding bacmids were transfected into insect cells (Sf9). Viruses were recovered from culture supernatant and amplified twice. Insect cells (Sf9 or High Five; Invitrogen) were infected for 72 hours. Total cell lysates were harvested and lyzed in lysis buffer (Tris HCl 50 mM pH7.6; 0.75% NP40; 500 mM NaCl; 10% glycerol; 1 mM DTT; 10 mM imidazole; Protease Inhibitor Cocktail; AEBSF 20 μg·ml^−1; Aprotinin 10 μg·ml^−1). Proteins were affinity purified on metal affinity resins (Talon Metal affinity resin; BD Biosciences). Bound materials were extensively washed in wash buffer (50 mM Sodium Phosphate pH 7.0; 300 mM NaCl; 10 mM imidazole; 0.5% Triton X-100; 10% glycerol) and eluted from the resin in 250 mM imidazole-containing wash buffer. Proteins were dialyzed in dialysis buffer (Tris HCl pH 7.6 20 mM; NaCl 200 mM; DTT 1 mM; EDTA 1 mM; 10% Glycerol). Proteins purifications were analyzed on 4-12% NuPAGE (Invitrogen).
USP8 was diluted in USP buffer (50 mM Tris HCl; 0.5 mM EDTA; 5 mM DTT; 0.01% Triton X-100; Bovine Serum Albumin 0.05 mg·ml^−1 pH8.8). Compounds stocks (100 mM) were stored at −20° C. in DMSO. Compounds were tested at different concentrations: from 200 μM to 91 nM.
Reactions were performed as duplicates in Black 384 well plates (small volume microplates; Greiner; 10 μl final reaction volume). The substrate concentration for USP8 was 300 nM Ub-AMC (Boston Biochem). The concentration of the enzyme (USP8) in specificity assays was 1.36 nM. The concentrations were determined in order to perform specificity assays under initial velocities at fixed substrate concentration. Compounds were pre-incubated with enzymes for 30 minutes at 25° C. Reactions were initiated by addition of substrate to the plates containing the enzymes (+/− compounds) diluted in assay buffer. Reactions were incubated for 60 minutes at 37° C. Reactions were stopped by adding acetic acid (100 mM final). Readings were performed on a Pherastar Fluorescent Reader (BMG). λ Emission 380 nm: λ Excitation=460 nm. Data (mean values +/− standard deviation) were analyzed as % of control (no compound) and plotted as percentage versus the Log of the compound concentration using GraphPad (Prism). Data were fitted to a sigmoidal model (variable slope).

The term IC50 denotes the concentration needed to halve the response being measured. Molecule `CC1CCCCN1CCCNC(=O)c1ccc2c(Cl)c3c(nc2c1)CCCC3` (stereo not drawn) [Example 20, 9-chloro-N-(3-(2-methylpiperidin-1-yl)propyl)-516,7,8-tetrahydroacridine-3-carboxamide] returned an IC50 of over 200 µM.

As to `O=C(NCC1CCNCC1)c1ccc2c(Cl)c3c(nc2c1)CCCC3` [Example 24, 9-chloro-N-((piperidin-4-yl)methyl)-5,6,7,8-tetrahydroacridine-3-carboxamide], the IC50 is about 200 µM.

In turn, `CN(C)c1ccc(CN2CCC(CNC(=O)c3ccc4c(Cl)c5c(nc4c3)CCCC5)CC2)cc1` [Example 23] yielded an IC50 of over 200 µM.

`COc1ccc(CN2CCC(CNC(=O)c3ccc4c(Cl)c5c(nc4c3)CCCC5)CC2)cc1` [Example 22, 9-chloro-N-((1-(4-methoxybenzyl)piperidin-4-yl)methyl)-5,6,7,8-tetrahydroacridine-3-carboxamide] gave an IC50 of over 200 µM.

In the case of `O=C(NCc1ccc(CN2CCCC2)cc1)c1ccc2c(Cl)c3c(nc2c1)CCCC3` [Example 21, 9-chloro-N-(4-(pyrrolidin-1-ylmethyl)benzyl)-5,6,7,8-tetrahydroacridine-3-carboxamide], the IC50 is over 200 µM.

`CN1CCCC1CCNC(=O)c1ccc2c(Cl)c3c(nc2c1)CCCC3` (stereo not drawn) [Example 17, 9-chloro-N-(2-(1-methylpyrrolidin-2-yl)ethyl)-5,6,7,8-tetrahydroacridino-3-carboxamide] came in with an IC50 of over 200 µM.

For `O=C(NCC(CN1CCCC1)C(O)c1ccccc1)c1ccc2c(Cl)c3c(nc2c1)CCCC3` (stereo not drawn) [Example 25, 9-chloro-N-(3-hydroxy-3-phenyl-2-pyrrolidin-1-ylmethylpropyl)-5,6,7,8-tetrahydroacridine-3-carboxamide], the IC50 is over 200 µM.

In turn, `O=C(Nc1cccc(CN2CCCC2)c1)c1ccc2c(Cl)c3c(nc2c1)CCCC3` [Example 19, 9-chloro-N-(3-(pyrrolidin-1-ylmethyl)phenyl)-5.6,7,8-tetrahydroacridine-3-carboxamide] came in with an IC50 of over 200 µM.

`O=C(NCc1cccc(CN2CCCC2)c1)c1ccc2c(Cl)c3c(nc2c1)CCCC3` [Example 18, 9-chloro-N-(3-(pyrrolidin-1-ylmethyl)benzyl)-5,6,7,8-tetrahydroacridine-3-carboxamide]: the IC50 was over 200 µM.
